Patent US10251394B2, “Molecules having pesticidal utility, and intermediates, compositions, and processes, related thereto” (Dow AgroSciences LLC, priority 2016, dated 2019)

Experiments:
Format in all cases: in vivo
[1] = tested on: Cabbage Looper (Trichoplusia ni); assay: Bioassay on Cabbage Looper (CL), 128-well diet tray assay; details: Cabbage Looper, Table ABC, read-out: CL rating
Summary of the method: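 Second-instar larvae, one to five per well, placed on artificial diet surface-treated with 50 μg/cm^2 compound in acetone-water, eight wells per compound. Held 5-7 days at 25° C, 14:10 light-dark; percent mortality per well averaged across wells.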

[2] = tested on: Beet Armyworm (Spodoptera exigua); assay: Bioassay on Beet Armyworm (BAW), 128-well diet tray assay; details: Beet Armyworm, Table ABC, read-out: BAW rating
Summary of the method: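 Second-instar larvae (one to five per well) placed on artificial diet surface-treated with 50 μg/cm^2 test molecule in 90:10 acetone-water, dried, eight wells per molecule. Held at 25° C, 14:10 light-dark, five to seven days; percent mortality recorded per well and averaged across the eight wells.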

[3] = tested on: Yellow Fever Mosquito (Aedes aegypti); assay: Bioassay on Yellow Fever Mosquito (YFM) larvae, 96-well plate; details: Table ABC
Description: Example C: Bioassays on Yellow Fever Mosquito (Aedes Aegypti, AEDSAE) (“YFM”)
Certain molecules disclosed in this document were tested against YFM using procedures described in the following paragraph. In the reporting of the results, the “GPA & YFM Rating Table” was used (See Table Section).
Master plates containing 400 μg of a molecule dissolved in 100 μL of dimethyl sulfoxide (DMSO) (equivalent to a 4000 ppm solution) are used. A master plate of assembled molecules contains 15 μL per well. To this plate, 135 μL of a 90:10 water:acetone mixture is added to each well. A robot (Biomek® NXP Laboratory Automation Workstation) is programmed to dispense 15 μL aspirations from the master plate into an empty 96-well shallow plate (“daughter” plate). There are 6 reps (“daughter” plates) created per master. The created daughter plates are then immediately infested with YFM larvae.
The day before plates are to be treated, mosquito eggs are placed in Millipore water containing liver powder to begin hatching (4 g. into 400 mL). After the daughter plates are created using the robot, they are infested with 220 μL of the liver powder/larval mosquito mixture (about 1 day-old larvae). After plates are infested with mosquito larvae, a non-evaporative lid is used to cover the plate to reduce drying. Plates are held at room temperature for 3 days prior to grading. After 3 days, each well is observed and scored based on mortality. The results are indicated in the table entitled “Table ABC: Biological Results” (See Table Section).

SMILES	pest or weed control at 50 µg/cm2 [1] [%]	pest or weed control at 50 µg/cm2 [2] [%]	YFM rating [3]
C[C@@H](NC(=O)c1ccc(/C(F)=C/C(c2cc(Br)cc(Br)c2)C(F)(F)F)cc1C(F)(F)F)C(=O)NCC(F)(F)F (stereo partly drawn) [F33, 4-((Z)-3-(3,5-Dibromophenyl)-1,4,4,4-tetrafluorobut-1-en-1-yl)-N—((R)-1-oxo-1-((2,2,2-trifluoroethyl)amino)propan-2-yl)-2-(trifluoromethyl)benzamide]	50 to 100	50 to 100	A (80-100)
O=C(NC1(C(=O)NCC(F)(F)F)CC1)c1ccc(/C(F)=C/C(c2cc(Br)cc(Br)c2)C(F)(F)F)cc1C(F)(F)F (stereo not drawn) [F34, (Z)-4-(3-(3,5-dibromophenyl)-1,4,4,4-tetrafluorobut-1-en-1-yl)-N-(1-((2,2,2-trifluoroethyl)carbamoyl)cyclopropyl)-2-(trifluoromethyl)benzamide]	50 to 100	50 to 100	A (80-100)
O=C(CNC(=O)c1ccc(/C(F)=C/C(c2cc(Br)cc(Br)c2)C(F)(F)F)cc1C(F)(F)F)NCC(F)(F)F (stereo not drawn) [F35, (Z)-4-(3-(3,5-Dibromophenyl)-1,4,4,4-tetrafluorobut-1-en-1-yl)-N-(2-oxo-2-((2,2,2-trifluoroethyl)amino)ethyl)-2-(trifluoromethyl)benzamide]	50 to 100	50 to 100	A (80-100)
C[C@@H](NC(=O)c1ccc(/C(F)=C/C(c2cc(Cl)c(F)c(Cl)c2)C(F)(F)F)cc1C(F)(F)F)C(=O)NCC(F)(F)F (stereo partly drawn) [F36, 4-((Z)-3-(3,5-Dichloro-4-fluorophenyl)-1,4,4,4-tetrafluorobut-1-en-1-yl)-N—((R)-1-oxo-1-((2,2,2-trifluoroethyl)amino)propan-2-yl)-2-(trifluoromethyl)benzamide]	50 to 100	50 to 100	A (80-100)
O=C(NC1(C(=O)NCC(F)(F)F)CC1)c1ccc(/C(F)=C/C(c2cc(Cl)c(F)c(Cl)c2)C(F)(F)F)cc1C(F)(F)F (stereo not drawn) [F37, (Z)-4-(3-(3,5-Dichloro-4-fluorophenyl)-1,4,4,4-tetrafluorobut-1-en-1-yl)-N-(1-((2,2,2-trifluoroethyl)carbamoyl)cyclopropyl)-2-(trifluoromethyl)benzamide]	50 to 100	50 to 100	A (80-100)
O=C(CNC(=O)c1ccc(/C(F)=C/C(c2cc(Cl)c(F)c(Cl)c2)C(F)(F)F)cc1C(F)(F)F)NCC(F)(F)F (stereo not drawn) [F38, (Z)-4-(3-(3,5-Dichloro-4-fluorophenyl)-1,4,4,4-tetrafluorobut-1-en-1-yl)-N-(2-oxo-2-((2,2,2-trifluoroethyl)amino)ethyl)-2-(trifluoromethyl)benzamide]	50 to 100	50 to 100	A (80-100)
CN(CC(F)(F)F)C(=O)C1(NC(=O)c2ccc(/C(F)=C/C(c3cc(Cl)cc(Cl)c3)C(F)(F)F)cc2C(F)(F)F)CC1 (stereo not drawn) [F133, (Z)-4-(3-(3,5-Dichlorophenyl)-1,4,4,4-tetrafluorobut-1-en-1-yl)-N-(1-(methyl(2,2,2-trifluoroethyl)carbamoyl)cyclopropyl)-2-(trifluoromethyl)benzamide]			B (More than 0-Less than 80)
Cc1cc(C(/C=C(\F)c2ccc(C(=O)NC3(C(=O)N(C)CC(F)(F)F)CC3)c(C(F)(F)F)c2)C(F)(F)F)cc(C)c1Cl (stereo not drawn) [F134, (Z)-4-(3-(4-Chloro-3,5-dimethylphenyl)-1,4,4,4-tetrafluorobut-1-en-1-yl)-N-(1-(methyl(2,2,2-trifluoroethyl)carbamoyl)cyclopropyl)-2-(trifluoromethyl)benzamide]			B (More than 0-Less than 80)
CN(CC(F)(F)F)C(=O)C1(NC(=O)c2ccc(/C(F)=C/C(c3ccc(Cl)c(Cl)c3)C(F)(F)F)cc2C(F)(F)F)CC1 (stereo not drawn) [F135, (Z)-4-(3-(3,4-Dichlorophenyl)-1,4,4,4-tetrafluorobut-1-en-1-yl)-N-(1-(methyl(2,2,2-trifluoroethyl)carbamoyl)cyclopropyl)-2-(trifluoromethyl)benzamide]			B (More than 0-Less than 80)
C[C@@H](NC(=O)c1ccc(/C(F)=C/C(c2cc(Cl)cc(Cl)c2)C(F)(F)F)cc1C(F)(F)F)C(=O)NCC(F)(F)F (stereo partly drawn) [F144, 4-((Z)-3-(3,5-Dichlorophenyl)-1,4,4,4-tetrafluorobut-1-en-1-yl)-N—((R)-1-oxo-1-((2,2,2-trifluoroethyl)amino)propan-2-yl)-2-(trifluoromethyl)benzamide]			A (80-100)
Cc1cc(C(/C=C(\F)c2ccc(C(=O)NCC(=O)N(C)CC(F)(F)F)c(C(F)(F)F)c2)C(F)(F)F)ccc1Cl (stereo not drawn) [PF47, (Z)-4-(3-(4-Chloro-3-methylphenyl)-1,4,4,4-tetrafluorobut-1-en-1-yl)-N-(2-(methyl(2,2,2-trifluoroethyl)amino]-2-oxoethyl)-2-(trifluoromethyl)benzamide]	50 to 100	50 to 100	
Cc1cc(C(/C=C(\F)c2ccc(C(=O)N[C@H](C)C(=O)NCC(F)(F)F)c(C(F)(F)F)c2)C(F)(F)F)ccc1Cl (stereo partly drawn) [PF48]	50 to 100	50 to 100	
Cc1cc(C(/C=C(\F)c2ccc(C(=O)N[C@H](C)C(=O)N(C)CC(F)(F)F)c(C(F)(F)F)c2)C(F)(F)F)ccc1Cl (stereo partly drawn) [PF49, 4-((Z)-3-(4-Chloro-3-methylphenyl)-1,4,4,4-tetrafluorobut-1-en-1-yl)-N—((R)-1-(methyl(2,2,2-trifluoroethyl)amino)-1-oxopropan-2-yl)-2-(trifluoromethyl)benzamide]	50 to 100	50 to 100	
Cc1cc(C(/C=C(\F)c2ccc(C(=O)NC3(C(=O)NCC(F)(F)F)CC3)c(C(F)(F)F)c2)C(F)(F)F)ccc1Cl (stereo not drawn) [PF50, (Z)-4-(3-(4-Chloro-3-methylphenyl)-1,4,4,4-tetrafluorobut-1-en-1-yl)-N-(1-((2,2,2-trifluoroethyl)carbamoyl)cyclopropyl)-2-(trifluoromethyl)benzamide]	50 to 100	50 to 100	
Cc1cc(C(/C=C(\F)c2ccc(C(=O)NC3(C(=O)N(C)CC(F)(F)F)CC3)c(C(F)(F)F)c2)C(F)(F)F)ccc1Cl (stereo not drawn) [PF51, (Z)-4-(3-(4-Chloro-3-methylphenyl)-1,4,4,4-tetrafluorobut-1-en-1-yl)-N-(1-(methyl(2,2,2-trifluoroethyl)carbamoyl)cyclopropyl)-2-(trifluoromethyl)benzamide]	50 to 100	50 to 100	
C[C@@H](NC(=O)c1ccc(/C(F)=C/C(c2cc(Cl)c(Cl)c(Cl)c2)C(C)(F)F)cc1Cl)C(=O)NCC(F)(F)F (stereo partly drawn) [PF60, 2-Chloro-N—((R)-1-oxo-1-((2,2,2-trifluoroethyl)amino)propan-2-yl)-4-((Z)-1,4,4-trifluoro-3-(3,4,5-trichlorophenyl)pent-1-en-1-yl)benzamide]	50 to 100	50 to 100	
CC(F)(F)C(/C=C(\F)c1ccc(C(=O)NC2(C(=O)NCC(F)(F)F)CC2)c(Cl)c1)c1cc(Cl)c(Cl)c(Cl)c1 (stereo not drawn) [PF62, (Z)-2-Chloro-4-(1,4,4-trifluoro-3-(3,4,5-trichlorophenyl)pent-1-en-1-yl)-N-(1-((2,2,2-trifluoroethyl)carbamoyl)cyclopropyl)benzamide]	50 to 100	50 to 100	
F/C(=C\C(c1cc(Cl)c(Cl)c(Cl)c1)C(F)(F)F)c1ccc(C(=S)NCC(=S)NCC(F)(F)F)c(C(F)(F)F)c1 (stereo not drawn) [PF88, (Z)-4-(1,4,4,4-tetrafluoro-3-(3,4,5-trichlorophenyl)but-1-en-1-yl)-N-(2-thioxo-2-((2,2,2-trifluoroethyl)amino)ethyl)-2-(trifluoromethyl)benzothioamide]	50 to 100	50 to 100	
C[C@@H](NC(=O)c1ccc(/C(F)=C/C(c2cc(Cl)c(Cl)c(Cl)c2)C(F)(F)F)cc1C(F)(F)F)C(=S)NCC(F)(F)F (stereo partly drawn) [PF96, 4-((2)-1,4,4,4-Tetrafluoro-3-(3,4,5-trichlorophenyl)but-1-en-1-yl)-N—((R)-1-thioxo-1-((2,2,2-trifluoroethyl)amino)propan-2-yl)-2-(trifluoromethyl)benzamide]	50 to 100	50 to 100	
O=C(NC1(C(=S)NCC(F)(F)F)CC1)c1ccc(/C(F)=C/C(c2cc(Cl)c(Cl)c(Cl)c2)C(F)(F)F)cc1C(F)(F)F (stereo not drawn) [PF98, (Z)-4-(1,4,4,4-Tetrafluoro-3-(3,4,5-trichlorophenyl)but-1-en-1-yl)-N-(1-((2,2,2-trifluoroethyl)carbamothioyl)cyclopropyl)-2-(trifluoromethyl)benzamide]	50 to 100	50 to 100	
